Test system: human myeloma cell line MM.1S
Experiment: SILAC acetylated-lysine peptide profiling, HDAC inhibitor vs DMSO (light/heavy ratio)
Format: cell-based
Text: An embodiment of the invention comprises utilizing the SILAC method in order to quantitate changes in protein expression between two or more populations of cells. The SILAC method is a technique based on mass spectrometry that detects differences in protein abundance among samples using non-radioactive isotopic labeling. The SILAC method is known in the art, and described in detail in Ong et al., “Stable Isotope Labeling by Amino Acids in Cell Culture, SILAC, as a Simple and Accurate Approach to Expression Proteomics”, Molecular & Cellular Proteomics, vol. 1, pp. 376-386 (2002), which is incorporated herein by reference in its entirety.
Briefly, the SILAC method involves growing two populations of cells in cell culture. The first population of cells is grown in growth media containing normal amino acids (“normal media”). The second population of cells is grown in media lacking a standard essential amino acid (such as lysine), but is then supplemented with a non-radioactive, isotopically labeled form of that essential amino acid (such as lysine labeled with ^13C atoms, rather than normal ^12C atoms), which is called “heavy media”. When the two populations of cells are each growing in the medium, they incorporate the amino acids into all of their proteins. The growth of cells maintained in the heavy media is no different from that in normal media. All peptides containing the heavy amino acids are heavier than their normal counterparts. The cells from each of the two populations of cells are lysed. The lysates from each of the two cell populations are then combined. The combined cell lysates are then analyzed by mass spectrometry. Pairs of chemically identical peptides of different stable isotope composition can be differentiated in a mass spectrometer due to their difference in mass. The ratio of peak intensities in the mass spectrum for such peptide pairs reflects the abundance ratio for the two proteins.
This example describes SILAC studies that were performed to compare the effects of three different HDAC inhibitors (Compound A, Compound B, and tubastatin A) to a control on a human multiple myeloma cell line. The HDAC inhibitors were also compared amongst themselves to determine differences in their effects.
A human myeloma cell line MM.1S was grown using either ^12C (light) or ^13C (heavy) lysine containing culture medium. The “heavy” cells were treated with DMSO as the control, and the “light” cells were treated with a single HDAC inhibitor at 37° C. for 6 hours. The heavy and light cells were lysed, and the lysates were mixed in 1:1 ratio and digested with the protease trypsin. The acetylated lysine containing peptides (due to the action of the HDAC inhibitor) in the digested peptide pool were captured by a non-specific anti-acetylated lysine antibody cocktail (the antibodies identify both light and heavy acetylated peptides), and subjected to mass spectrometry analysis in order to identify thousands of individual peptides.
Thousands of peptides were identified in pairs (^12C and ^13C) due to their known mass differences. The amino acid sequence and quantitative ratio (Light/Heavy) of a given peptide in two differentially treated cell lysates were then determined and annotated with their possible protein (gene) sources.
As stated above, three HDAC inhibitors (Compound A, Compound B, and Tubastatin A) were used. Thus, the SILAC method was performed three times, with a different HDAC inhibitor compared to a control each time. Accordingly, there are three pairs of quantitative data in the table below, i.e., Compound A:DMSO, Compound B:DMSO, and Tubastatin A:DMSO. A cut-off of 1.30 fold of change (increase or decrease) was then used to determine “changed” or “+” in the table, and any peptides with a fold of change less than 1.3 fold were determined to be “unchanged” or “0” in the table. Those peptides that were not identified were marked as “NA” in the table. […]

`O=C(CCCCCCNC(=O)c1cnc(N(c2ccccc2)c2ccccc2)nc1)NO` [Compound A, 2-(diphenylamino)-N-(7-(hydroxyamino)-7-oxoheptyl)pyrimidine-5-carboxamide] was tested. Which “light to heavy ratio (L/H ratio) of acetylated peptide AIFAGYK(ac)R (SEQ ID NO: 300)” value (60S ribosomal protein L35a [15], RPL35A, drug:DMSO) did it give?
Its value is 0.86 log 2.

And the “light to heavy ratio (L/H ratio) of acetylated peptide KIEISQHAK(ac)YTCSFCGK (SEQ ID NO: 351)” value (60S ribosomal protein L37a [36], RPL37A, drug:DMSO)?
The value was 0.00 log 2.

What about the “light to heavy ratio (L/H ratio) of acetylated peptide SIDLK(ac)DK (SEQ ID NO: 572)” value (60 kDa heat shock protein mitochondrial [87], gene HSPD1, inhibitor:DMSO) of the same molecule?
The value was 0.42 log 2.

What about the “light to heavy ratio (L/H ratio) of acetylated peptide VMEHFIK(ac)LYK (SEQ ID NO: 276)” value (78 kDa glucose-regulated protein [268], HSPA5, drug:DMSO) of the same molecule?
Its value is 0.54 log 2.

And the “light to heavy ratio (L/H ratio) of acetylated peptide AK(ac)[…] (SEQ ID NO: 266)” value (78 kDa glucose-regulated protein [326], HSPA5, drug:DMSO)?
Its value is 0.44 log 2.

What about the “light to heavy ratio (L/H ratio) of acetylated peptide FK(ac)[…] (SEQ ID NO: 333)” value (116 kDa U5 small nuclear ribonucleoprotein component [790], EFTUD2, drug:DMSO) of the same molecule?
Its value is 0.00 log 2.

What about the “L/H ratio of acetylated peptide […](ac)LAR (SEQ ID NO: 19)” value (ACADVL [428], log 2 scale, drug vs DMSO) of the same molecule?
Its value is 0.00.

What about the “L/H ratio of acetylated peptide LDHLAEK(ac)FR (SEQ ID NO: 20)” value (ACTN1 [398], log 2 scale, drug vs DMSO) of the same molecule?
Its value is 0.00.

And the “light to heavy ratio (L/H ratio) of acetylated peptide IFGSNK(ac)WTTEQQQR (SEQ ID NO: 306)” value (ADP-ribosylation factor-like protein 6-interacting protein 1 [96], ARL6IP1, drug:DMSO)?
The value was 1.00 log 2.

And the “light to heavy ratio (L/H ratio) of acetylated peptide TTLLYK(ac)LK (SEQ ID NO: 624)” value (ADP-ribosylation factor-like protein 11 [31], gene ARL11, inhibitor:DMSO)?
The value was 0.49 log 2.

And the “light to heavy ratio (L/H ratio) of acetylated peptide IFK(ac)SDGLR (SEQ ID NO: 280)” value (ADP/ATP translocase 1 [166], SLC25A4, drug:DMSO)?
The value was 0.56 log 2.

And the “light to heavy ratio (L/H ratio) of acetylated peptide ITK(ac)SDGIR (SEQ ID NO: 587)” value (ADP/ATP translocase 3 [166], gene SLC25A6, inhibitor:DMSO)?
The value was 0.44 log 2.

And the “L/H ratio of acetylated peptide” value (AK(ac)HDELTYF (SEQ ID NO: 497), Cystatin-B [91], CSTB)?
The value was −0.88 log 2.

And the “light to heavy ratio (L/H ratio) of acetylated peptide, log 2 scale” value (ALDLNLK(ac)HQILPK (SEQ ID NO: 248), Cytochrome b-c1 complex subunit 7 [72], UQCRB)?
Its value is −0.50.

And the “L/H ratio of acetylated peptide LK(ac)[…] (SEQ ID NO: 21)” value (ANP32B [101], log 2 scale, drug vs DMSO)?
Its value is 0.00.

And the “L/H ratio of acetylated peptide […](ac)SLYGK (SEQ ID NO: 22)” value (ANXA6 [63], log 2 scale, drug vs DMSO)?
Its value is 0.00.

What about the “L/H ratio of acetylated peptide MYFDK(ac)[…] (SEQ ID NO: 23)” value (ATAD3A [491], log 2 scale, drug vs DMSO) of the same molecule?
The value was 0.00.

And the “L/H ratio of acetylated peptide IVEYEK(ac)EMEK (SEQ ID NO: 24)” value (ATP5H [117], log 2 scale, drug vs DMSO)?
Its value is 0.00.

And the “L/H ratio of acetylated peptide YYNK(ac)YINVK (SEQ ID NO: 12)” value (ATP5J2 [54], log 2 scale, drug vs DMSO)?
The value was 0.54.

What about the “light to heavy ratio (L/H ratio) of acetylated peptide QNK(ac)LEQVEK (SEQ ID NO: 271)” value (ATP synthase subunit O mitochondrial [54], ATP50, drug:DMSO) of the same molecule?
Its value is 0.46 log 2.

What about the “light to heavy ratio (L/H ratio) of acetylated peptide STVAQLVK(ac)R (SEQ ID NO: 552)” value (ATP synthase subunit alpha mitochondrial [261], gene ATP5A1, inhibitor:DMSO) of the same molecule?
Its value is 0.39 log 2.

What about the “light to heavy ratio (L/H ratio) of acetylated peptide ISEQSDAK(ac)LK (SEQ ID NO: 600)” value (ATP synthase subunit alpha mitochondrial [539], gene ATP5A1, inhibitor:DMSO) of the same molecule?
The value was 0.46 log 2.

And the “light to heavy ratio (L/H ratio) of acetylated peptide […](ac)ETIAK (SEQ ID NO: 307)” value (ATP synthase subunit b mitochondrial [233], ATP5F1, drug:DMSO)?
The value was 1.00 log 2.

And the “light to heavy ratio (L/H ratio) of acetylated peptide LVPLK(ac)ETIK (SEQ ID NO: 507)” value (ATP synthase subunit beta mitochondrial [485], gene ATP5B, inhibitor:DMSO)?
Its value is −0.64 log 2.

What about the “light to heavy ratio (L/H ratio) of acetylated peptide […](ac)QLTVK (SEQ ID NO: 279)” value (ATP synthase subunit g mitochondrial [66], ATP5L, drug:DMSO) of the same molecule?
The value was 0.56 log 2.

And the “light to heavy ratio (L/H ratio) of acetylated peptide FEDPK(ac)FEVIEKPQA (SEQ ID NO: 325)” value (ATP synthase-coupling factor 6 mitochondrial [99], ATP5J, drug:DMSO)?
Its value is 0.00 log 2.

And the “light to heavy ratio (L/H ratio) of acetylated peptide SAQEAYK(ac)SYIR (SEQ ID NO: 502)” value (ATP-dependent RNA helicase DDX18 [584], gene DDX18, inhibitor:DMSO)?
Its value is −0.74 log 2.

What about the “light to heavy ratio (L/H ratio) of acetylated peptide MQK(ac)[…] (SEQ ID NO: 526)” value (Actin aortic smooth muscle [317], gene ACTA2, inhibitor:DMSO) of the same molecule?
Its value is −0.44 log 2.

And the “light to heavy ratio (L/H ratio) of acetylated peptide AFAK(ac)ELFLGK (SEQ ID NO: 627)” value (Acyl-CoA dehydrogenase family member 9 mitochondrial [41], gene ACAD9, inhibitor:DMSO)?
Its value is 0.49 log 2.

What about the “light to heavy ratio (L/H ratio) of acetylated peptide YSAK(ac)DYFFK (SEQ ID NO: 319)” value (Alpha-soluble NSF attachment protein [203], NAPA, drug:DMSO) of the same molecule?
The value was 1.00 log 2.

What about the “light to heavy ratio (L/H ratio), log 2 scale, acetylated peptide SELTGK(ac)FEK (SEQ ID NO: 778)” value (Annexin A5 [76], gene ANXA5, drug:DMSO) of the same molecule?
Its value is 1.00.

And the “light to heavy ratio (L/H ratio) of acetylated peptide PAQGAK(ac)YR (SEQ ID NO: 305)” value (Annexin A6 [9], ANXA6, drug:DMSO)?
Its value is 1.00 log 2.

And the “light to heavy ratio (L/H ratio) of acetylated peptide TKYEK(ac)SLYSMIK (SEQ ID NO: 270)” value (Annexin A6 [299], ANXA6, drug:DMSO)?
The value was 0.46 log 2.

And the “light to heavy ratio (L/H ratio) of acetylated peptide NDTSGEYK(ac)K (SEQ ID NO: 285)” value (Annexin A6 [314], ANXA6, drug:DMSO)?
The value was 0.61 log 2.

What about the “light to heavy ratio (L/H ratio) of acetylated peptide AINEAYK(ac)EDYHK (SEQ ID NO: 282)” value (Annexin A6 [478], ANXA6, drug:DMSO) of the same molecule?
Its value is 0.59 log 2.

What about the “light to heavy ratio (L/H ratio) of acetylated peptide NKPLFFADK(ac)LYK (SEQ ID NO: 298)” value (Annexin A6 [607], ANXA6, drug:DMSO) of the same molecule?
Its value is 0.78 log 2.

Source: patent US20140357512A1, “HISTONE DEACETYLASE (HDAC) BIOMARKERS IN MULTIPLE MYELOMA” (priority 2013, published 2014)
